Type in all cases: in vivo
One assay deals with Uncinula necator. In words: Grape powdery mildew (UNCINE) fungicidal activity. The following applies: Erysiphe necator, 24 h, 1 Day Protectant, read-out: Disease Control UNCINE 1DP. The protocol: Technical grades of materials were dissolved in acetone, which were then mixed with nine volumes of water containing 110 ppm Triton X-100. The fungicide solutions were applied onto wheat seedlings using an automated booth sprayer to run-off. All sprayed plants were allowed to air dry prior to further handling. Wheat plants (variety Yuma) were grown from seed in a greenhouse in 50% mineral soil/50% soil-less Metro mix until the first leaf was fully emerged, with 7-10 seedlings per pot. These plants were inoculated with an aqueous spore suspension of Septoria tritici either prior to or after fungicide treatments. After inoculation the plants were kept in 100% relative humidity (one day in a dark dew chamber followed by two to three days in a lighted dew chamber at 20° C.) to permit spores to germinate and infect the leaf. The plants were then transferred to a greenhouse set at 20° C. for disease to develop. When disease symptoms were fully expressed on the 1st leaves of untreated plants, infection levels were assessed on a scale of 0 to 100 percent disease severity. Percent disease control was calculated using the ratio of disease severity on treated plants relative to untreated plants. Evaluation of Fungicidal Activity: Grape Powdery Mildew (Uncinula Necator; Bayer Code […]) Grape seedlings (variety Carignane) were grown in soil-less Metro mix, with one plant per pot, and used in the test when approximately one month old. Plants were inoculated 24 hr after fungicide treatment by shaking spores from infected leaves over test plants. Plants were maintained in a greenhouse set at 20° C. until disease was fully developed. Fungicide formulation, application and disease assessment on the sprayed leaves followed the procedures as described in the Example A.

Assay [1] relates to Blumeria graminis f. sp. tritici. The experiment in a line: Wheat powdery mildew (ERYSGT) fungicidal activity. The following applies: 24 h, 1 Day Protectant, read-out: Disease Control ERYSGT 1DP. The protocol: Technical grades of materials were dissolved in acetone, which were then mixed with nine volumes of water containing 110 ppm Triton X-100. The fungicide solutions were applied onto wheat seedlings using an automated booth sprayer to run-off. All sprayed plants were allowed to air dry prior to further handling. Wheat plants (variety Yuma) were grown from seed in a greenhouse in 50% mineral soil/50% soil-less Metro mix until the first leaf was fully emerged, with 7-10 seedlings per pot. These plants were inoculated with an aqueous spore suspension of Septoria tritici either prior to or after fungicide treatments. After inoculation the plants were kept in 100% relative humidity (one day in a dark dew chamber followed by two to three days in a lighted dew chamber at 20° C.) to permit spores to germinate and infect the leaf. The plants were then transferred to a greenhouse set at 20° C. for disease to develop. When disease symptoms were fully expressed on the 1st leaves of untreated plants, infection levels were assessed on a scale of 0 to 100 percent disease severity. Percent disease control was calculated using the ratio of disease severity on treated plants relative to untreated plants. Evaluation of Fungicidal Activity: Wheat Powdery Mildew (Blumeria Graminis f. sp. Tritici; Synonym: Erysiphe graminis f. sp. Tritici; Bayer Code […]) Wheat plants (variety Yuma) were grown from seed in a greenhouse in 50% mineral soil/50% soil-less Metro mix until the first leaf was fully emerged, with 7-10 seedlings per pot. These plants were inoculated by dusting with infected stock plants 24 hr after fungicide treatments. After inoculation the plants were kept in a greenhouse set at 20° C. for disease to develop. Fungicide formulation, application and disease assessment on the sprayed leaves followed the procedures as described in the Example A.

The test system of a further assay is Alternaria solani. In words: Tomato early blight (ALTESO) fungicidal activity. The following applies: 24 h, 1 Day Protectant, read-out: Disease Control ALTESO 1DP. The protocol: Technical grades of materials were dissolved in acetone, which were then mixed with nine volumes of water containing 110 ppm Triton X-100. The fungicide solutions were applied onto wheat seedlings using an automated booth sprayer to run-off. All sprayed plants were allowed to air dry prior to further handling. Wheat plants (variety Yuma) were grown from seed in a greenhouse in 50% mineral soil/50% soil-less Metro mix until the first leaf was fully emerged, with 7-10 seedlings per pot. These plants were inoculated with an aqueous spore suspension of Septoria tritici either prior to or after fungicide treatments. After inoculation the plants were kept in 100% relative humidity (one day in a dark dew chamber followed by two to three days in a lighted dew chamber at 20° C.) to permit spores to germinate and infect the leaf. The plants were then transferred to a greenhouse set at 20° C. for disease to develop. When disease symptoms were fully expressed on the 1st leaves of untreated plants, infection levels were assessed on a scale of 0 to 100 percent disease severity. Percent disease control was calculated using the ratio of disease severity on treated plants relative to untreated plants. Evaluation of Fungicidal Activity: Tomato Early Blight (Alternaria Solani; Bayer Code […]) Tomato plants (variety Outdoor girl) were propagated in soil-less Metro mix, with each pot having one plant, and used when 12 to 14 days old. Test plants were inoculated with an aqueous spore suspension of Alternaria solani 24 hr after fungicide treatments. After inoculation the plants were kept in 100% relative humidity (one day in a dark dew chamber followed by two to three days in a lighted dew chamber at 20° C.) to permit spores to germinate and infect the leaf. The plants were then transferred to a growth room at 22° C. for disease to develop. Fungicide formulation, application and disease assessment on the sprayed leaves followed the procedures as described in the Example A.

In assay [2] the test system is Glomerella lagenarium; Anamorph: Colletotricum lagenarium. In words: Cucumber anthracnose (COLLLA) fungicidal activity. As to conditions: Colletotrichum orbiculare, 24 h, 1 Day Protectant, read-out: Disease Control COLLLA 1DP. The protocol:
Technical grades of materials were dissolved in acetone, which were then mixed with nine volumes of water containing 110 ppm Triton X-100. The fungicide solutions were applied onto wheat seedlings using an automated booth sprayer to run-off. All sprayed plants were allowed to air dry prior to further handling. Wheat plants (variety Yuma) were grown from seed in a greenhouse in 50% mineral soil/50% soil-less Metro mix until the first leaf was fully emerged, with 7-10 seedlings per pot. These plants were inoculated with an aqueous spore suspension of Septoria tritici either prior to or after fungicide treatments. After inoculation the plants were kept in 100% relative humidity (one day in a dark dew chamber followed by two to three days in a lighted dew chamber at 20° C.) to permit spores to germinate and infect the leaf. The plants were then transferred to a greenhouse set at 20° C. for disease to develop. When disease symptoms were fully expressed on the 1st leaves of untreated plants, infection levels were assessed on a scale of 0 to 100 percent disease severity. Percent disease control was calculated using the ratio of disease severity on treated plants relative to untreated plants. Evaluation of Fungicidal Activity: Cucumber Anthracnose (Glomerella Lagenarium; Anamorph: Colletotricum Lagenarium; Bayer Code COLLLA) Cucumber seedlings (variety Bush Pickle) were propagated in soil-less Metro mix, with each pot having one plant, and used in the test when 12 to 14 days old. Test plants were inoculated with an aqueous spore suspension of Colletotricum lagenarium 24 hr after fungicide treatments. After inoculation the plants were kept in a dew room at 22° C. with 100% relative humidity for 48 hr to permit spores to germinate and infect the leaf. The plants were then transferred to a growth room set at 22° C. for disease to develop. Fungicide formulation, application and disease assessment on the sprayed leaves followed the procedures as described in the Example A.

As to `COc1ccnc(C(=O)N[C@H]2COC[C@H](Cc3ccccc3)[C@@H](OCC(C)C)[C@H](C)OC2=O)c1O` [Compound 2, N-((3S,7S,8R,9S)-7-benzyl-8-isobutoxy-9-methyl-2-oxo-1,5-dioxonan-3-yl)-3-hydroxy-4-methoxypicolinamide], in the assay with Uncinula necator, the pest or weed control at 100 ppm was 0 to 80%.

As for `COc1ccnc(C(=O)N[C@H]2COC[C@H](Cc3ccccc3)[C@@H](OCC(C)C)[C@H](C)OC2=O)c1OCOC(=O)C(C)C` [Compound 3], the pest or weed control at 100 ppm (in assay [1]; in the assay on Alternaria solani; with Uncinula necator; in assay [2]) was 80 to 100% each time.

For the compound `COc1ccnc(C(=O)N[C@H]2COC[C@H](Cc3ccccc3)[C@@H](OCC(C)C)[C@H](C)OC2=O)c1OCOC(=O)C(C)(C)C` [Compound 7], the values for the pest or weed control at 100 ppm (in assay [1]; with Alternaria solani; in the assay with Uncinula necator) were 0 to 80%, 80 to 100% and 80 to 100%, respectively.

Regarding `COc1ccnc(C(=O)N[C@H]2COC[C@H](Cc3ccccc3)[C@@H](OCC(C)C)[C@H](C)OC2=O)c1OCOC(C)=O` [Compound 8, (2-((3S,7S,8R,9S)-7-benzyl-8-isobutoxy-9-methyl-2-oxo-1,5-dioxonan-3-ylcarbamoyl)-4-methoxypyridin-3-yloxy)methyl acetate], the pest or weed control at 100 ppm (in assay [1]; in the assay on Alternaria solani; in the assay with Uncinula necator; in assay [2]) was 80 to 100% each time.

On to `COc1ccnc(C(=O)N[C@H]2COC[C@H](Cc3ccccc3)[C@@H](OCC(C)C)[C@H](C)OC2=O)c1OC(C)=O` [Compound 9, 2-(((3S,7S,8R,9S)-7-benzyl-8-isobutoxy-9-methyl-2-oxo-1,5-dioxonan-3-yl)carbamoyl)-4-methoxypyridin-3-yl acetate], for which the pest or weed control at 100 ppm (in assay [1]; in the assay with Alternaria solani; with Uncinula necator) was 80 to 100% throughout.

For the compound `COc1ccnc(C(=O)N[C@H]2COC[C@H](Cc3ccccc3)[C@@H](OCC(C)C)[C@H](C)OC2=O)c1OC(=O)OC(C)C` [Compound 10, 2-(((3S,7S,8R,9S)-7-benzyl-8-isobutoxy-9-methyl-2-oxo-1,5-dioxonan-3-yl)carbamoyl)-4-methoxypyridin-3-yl isopropyl carbonate], the pest or weed control at 100 ppm (in assay [1]; with Alternaria solani; in the assay on Uncinula necator) was 0 to 80% each time.

On to `COc1ccnc(C(=O)N[C@H]2COC[C@H](Cc3ccccc3)[C@@H](OCCC(=O)N(C)C)[C@H](C)OC2=O)c1OCOC(C)=O` [Compound 15], for which the pest or weed control at 100 ppm (in assay [1]; in the assay on Alternaria solani; in the assay on Uncinula necator; in assay [2]) was 0 to 80% throughout.

On to `COCCCO[C@@H]1[C@@H](Cc2ccccc2)COC[C@H](NC(=O)c2nccc(OC)c2OCOC(C)=O)C(=O)O[C@H]1C` [Compound 16], for which the pest or weed control at 100 ppm in assay [1] lay in the range of 80 to 100%; in the assay on Alternaria solani it was 80 to 100%; in the assay with Uncinula necator, 0 to 80%; in assay [2], 80 to 100%.

`CCCO[C@@H]1[C@@H](Cc2ccccc2)COC[C@H](NC(=O)c2nccc(OC)c2OCOC(C)=O)C(=O)O[C@H]1C` [Compound 22]: the pest or weed control at 100 ppm (in assay [1]; with Alternaria solani; in the assay on Uncinula necator; in assay [2]) was 80 to 100% in each case.

For the compound `COc1ccnc(C(=O)N[C@H]2COC[C@H](Cc3ccccc3)[C@@H](OCCCC(F)(F)F)[C@H](C)OC2=O)c1OCOC(C)=O` [Compound 23], the pest or weed control at 100 ppm in assay [1] is 80 to 100%; in the assay with Alternaria solani it was 80 to 100%; in the assay on Uncinula necator, 0 to 80%; in assay [2] it was 80 to 100%.

Regarding `CCCCCO[C@@H]1[C@@H](Cc2ccccc2)COC[C@H](NC(=O)c2nccc(OC)c2OCOC(C)=O)C(=O)O[C@H]1C` [Compound 26], the pest or weed control at 100 ppm was in the range of 0 to 80% in assay [1], 80 to 100% in the assay on Alternaria solani, 80 to 100% with Uncinula necator and 80 to 100% in assay [2].

Consider `COc1ccnc(C(=O)N[C@H]2COC[C@H](Cc3ccccc3)[C@@H](OCC(F)F)[C@H](C)OC2=O)c1OCOC(C)=O` [Compound 44], for which the pest or weed control at 100 ppm with Alternaria solani and in the assay on Uncinula necator was 0 to 80% throughout.

Turning to `COc1ccnc(C(=O)N[C@H]2COC[C@H](Cc3ccccc3)[C@@H](OCCC(C)OC)[C@H](C)OC2=O)c1OCOC(C)=O` (some centres unmarked) [Compound 46], the pest or weed control at 100 ppm in the assay on Alternaria solani and in the assay on Uncinula necator was 0 to 80% in each case.

As to `COc1ccnc(C(=O)N[C@H]2COC[C@H](Cc3ccccc3)[C@@H](OC3CCCC3)[C@H](C)OC2=O)c1OCOC(C)=O` [Compound 106], the pest or weed control at 100 ppm was in the range of 0 to 80% in the assay on Alternaria solani and 80 to 100% in assay [2].

Take `COc1ccnc(C(=O)N[C@H]2COC[C@H](Cc3ccccc3)[C@@H](OC3CCCC3)[C@H](C)OC2=O)c1OC(C)=O` [Compound 107]: the pest or weed control at 100 ppm in the assay with Alternaria solani lay in the range of 0 to 80%; in the assay with Uncinula necator, 0 to 80%; in assay [2] it was 80 to 100%.

In the case of `COc1ccnc(C(=O)N[C@H]2COC[C@H](Cc3ccccc3)[C@@H](OC3CCCC3)[C@H](C)OC2=O)c1OCOC(=O)C(C)C` [Compound 108], the pest or weed control at 100 ppm (in the assay on Alternaria solani; with Uncinula necator; in assay [2]) was 80 to 100% in each case.

The record behind these values is patent US8835462B2, “Macrocyclic picolinamides as fungicides” (Dow AgroSciences LLC, priority 2012, dated 2014).
